Laboratory results published in patent US5922775A, “Method of treating malignant tumors with ketone thyroxine analogues having no significant hormonal activity” (priority 1997, dated 1999).
Entries after “also recorded” stand apart in the source; their conditions may differ.

Assays:
malignant tumors = settings: cited from earlier work
[1] = test system: microtubule protein (MTP); experiment: Microtubule assembly (MTP polymerization) in vitro, optical test at 350 nm; assay type: biochemical, bovine or rabbit (brain)
Excerpt: This inhibition is critically dependent on the concentration of GTP. The quantitative correlation between the concentrations of DIME and GTP, under conditions of a linear rate of MTP polymerization, follows Michaelis-Menten kinetics and the inhibition portrays a "mixed" type, where km for GTP and Vmax are altered simultaneously. Chemical analogues of DIME inhibit MTP polymerization parallel to their antitumorigenic action in vivo. The MTP site is one of the early cellular response sites of DIME.
J. Oncol. Abnormal spindle structures could be the result of DIME-MTP interaction or reactions of DIME with components of the microtubule organizing center or with as yet undefined systems sequentially or in concert. Since time-dependent quantitative analysis of the MTP system in situ is unsuitable for initial velocity measurement we adapted the in vitro assembly system of neurotubules as a model for a quantitative analysis of the interaction of DIME with MTP. […] The time course of MTP assembly consists of initiation and propagation and termination steps, Gaskin, et al., 1974, "Turbidimetric studies of the in vitro assembly and disassembly of porcine neurotubules", J. Mol. Biol. 89:737-758. The rate of propagation under defined conditions is sufficiently linear to permit kinetic analysis, that can be evaluated with respect DIME and GTP concentrations. As we show here the inhibition of MTP assembly by DIME occurs in the same range of drug concentration as required to inhibit tumorigonesis in vivo, or to inhibit cell replication or induce eventual cell death; Mendeleyev, et al., 1997. "Structural specificity and tumoricidal action of methyl-3,5-diiodo-4-(4'-methoxyphenoxy)benzoate (DIME)" Int. J. Oncol., 10:689-695. Therefore the DIME-MTP interaction is most probably a component of the apparently pleiotropic cellular mechanism of action of DIME.
Preparation of MTP and an optical test for polymerization was adopted from published methods, Gaskin, et al., 1974, "Turbidimetric studies of the in vitro assembly and disassembly of porcine neurotubules", J. Mol. Biol. 89:737-758; Tiwari, et al., 1993, "A pH and temperature-dependent cycling method that doubles the yield of microtubule protein", Anal. Biochem. 215:96-103. Bovine or rabbit brain was homogenized in an equal volume of ice cold buffer containing 100 mM Pipes/K^+ (pH 7.4), 4 mM EGTA. 1 mM MgCl2, 0.5 mM DTT and 0.1 mM PMSF, and centrifuged at 39,000 g for 1 hour at 4° C. To the supernatant, DMSO (8% final concentration) and GTP (1 mM final concentration) were added, followed by incubation at 37° C. for 30 minutes. Microtubules were pelleted at 100,000 g at 37° C. for 30 minutes. The pellets were incubated on ice for 15 minutes, followed by resuspension in ice cold PEM buffer (100 mM Pipes/K+ (pH 6.9), 1 mM EGTA, 1 mM MgCl2). This warm polymerization and cold depolymerization cycle was repeated once more and the cold, resuspended monomeric MTP (8-10 mg/ml protein) was used for the optical test for polymerization kinetics. Both rabbit or bovine brain yielded identical MTP preparations.
The polymerization reaction was started by the addition of […] of MTP solution (equivalent to 0.8-1.0 mg protein) and initial linear rates of increase in absorbance at 350 nm followed and recorded at 37° C. in a Perkin-Elmer 552 double beam spectrophotometer, equipped with a thermostatically controlled cuvette holder.
It is apparent that the rate of MTP polymerization proceeds in a linear manner, thus conditions for maximal polymerization rates as defined by Berne, B, 1974, "Interpretation of light scattering from long rods", J. Mol. Biol. 89:755-758 appear fulfilled. Therefore it is possible to determine the quantitative correlation between [DIME] and [GTP] by comparing the linear rate in the presence of varying drug and activator concentrations.
The assay system consisted of 240 μl of PEM buffer containing 8% DMSO […]
(added in 3 μl), or solvent control and 0.6 mg MTP (60 μl). […]

[2] = test system: human lung cancer cells (A 549); experiment: Growth of human lung cancer cells (Table 2 B); assay type: cell-based
Excerpt: The effects of these three substances on the growth of human mammary cancer cells (MDA-MB-231) and human lung cancer cells (A 549) are summarized in Table 2.
(×10^3) Cell number per 2 cm^2

SMILES: COC(=O)c1cc(I)c(Oc2ccc(OC)cc2)c(I)c1 [DIME, methyl 3,5-diiodo-4-(4'-methoxyphenoxy)benzoate]
- anti-tumor activity in vivo (malignant tumors): potential tumoricidal agent both in cell cultures and in vivo; also recorded: highly active both in cellular assays and in vivo
- Percent inhibition of intitial velocity (microtubule assembly in vitro) ([1]; 10 μM drug, GTP 1 mM, 37° C., averages of duplicate assay): 93%
- change of km GTP ([1]; 1 mM DIME [sic]): ~50%
- decrease of Vmax ([1]; 1 mM DIME [sic]): ~50%
- Km ([1]; 1 mM DIME [sic], from 6.7 mM without drug, read-out: km GTP in presence of DIME): 14 µM
- inhibition of MTP polymerization with increasing DIME ([1]; 1 mM GTP, increasing DIME concentrations): progressively inhibit MTP polymerization
- inhibition of GTP-dependent polymerization of MTP ([1]; DIME at 1 to 5 mM as printed): inhibits the GTP-dependent polymerization of MTP
- type of inhibition of MTP polymerization (DIME vs GTP) ([1]; double reciprocal plot / Michaelis-Menten, 1 mM DIME): "mixed" type inhibition
- inhibitory action on MTP assembly (comparison, FIG. 2) ([1]; drug concentrations up to 20 μM): similar
- order of potency on MTP assembly (FIG. 3) ([1]; zero to 10 μM drug, lowered GTP concentration (10 μM)): DIME>DIPE>DIPP
- Cell number ([2]; 2 μM, 48 hours, control 110): 100 ×10^3 cell number per 2 cm^2 w
- Cell number ([2]; 2 μM, 72 hours, control 190): 180 ×10^3 cell number per 2 cm^2 w
- Cell number ([2]; 5 μM + BNPP 150 μM (esterase inhibitor), 48 hours, control 110): 24 ×10^3 cell number per 2 cm^2 w
- Cell number ([2]; 5 μM + BNPP 150 μM (esterase inhibitor), 72 hours, control 190): 15 ×10^3 cell number per 2 cm^2 w
- Cell number ([2]; 5 μM, 48 hours, control 110): 72 ×10^3 cell number per 2 cm^2 w
- Cell number ([2]; 5 μM, 72 hours, control 190): 135 ×10^3 cell number per 2 cm^2 w
- effect of esterase inhibitor BNPP on cytocidal action ([2]; lung cancer cells, with BNPP): the esterase inhibitor supported the DIME effect (at 72 hrs)
